The numbers were not newly measured in patent US12133912B2, “Stable pharmaceutical compositions of succinylcholine chloride” (Slayback Pharma LLC., priority 2021, dated 2024), which cites them from elsewhere.

Each structure is given as a SMILES string.

The target of data set [1] is T1, cholinergic receptors of the motor end plate (Homo sapiens, UniProt P02708+Q04844+Q07001).
T1 construct: Succinylcholine combines with the cholinergic receptors of the motor end plate to produce depolarization; from tissue; host or cells: motor end plate of skeletal muscle, in vivo after intravenous administration
As to conditions: after intravenous administration.

T1 sequence (P02708 21-457): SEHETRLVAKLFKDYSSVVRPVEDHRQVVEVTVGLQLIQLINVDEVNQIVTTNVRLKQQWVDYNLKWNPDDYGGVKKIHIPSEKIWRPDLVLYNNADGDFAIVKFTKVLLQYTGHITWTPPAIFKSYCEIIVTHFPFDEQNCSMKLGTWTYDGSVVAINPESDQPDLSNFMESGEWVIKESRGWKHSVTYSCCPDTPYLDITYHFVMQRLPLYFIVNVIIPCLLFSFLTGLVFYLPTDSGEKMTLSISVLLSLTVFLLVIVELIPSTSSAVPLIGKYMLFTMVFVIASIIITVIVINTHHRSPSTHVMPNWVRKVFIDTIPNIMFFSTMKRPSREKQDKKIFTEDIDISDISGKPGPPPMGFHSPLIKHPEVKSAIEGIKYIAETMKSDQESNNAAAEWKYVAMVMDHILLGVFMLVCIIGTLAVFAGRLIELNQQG
T1 sequence (Q07001 22-517): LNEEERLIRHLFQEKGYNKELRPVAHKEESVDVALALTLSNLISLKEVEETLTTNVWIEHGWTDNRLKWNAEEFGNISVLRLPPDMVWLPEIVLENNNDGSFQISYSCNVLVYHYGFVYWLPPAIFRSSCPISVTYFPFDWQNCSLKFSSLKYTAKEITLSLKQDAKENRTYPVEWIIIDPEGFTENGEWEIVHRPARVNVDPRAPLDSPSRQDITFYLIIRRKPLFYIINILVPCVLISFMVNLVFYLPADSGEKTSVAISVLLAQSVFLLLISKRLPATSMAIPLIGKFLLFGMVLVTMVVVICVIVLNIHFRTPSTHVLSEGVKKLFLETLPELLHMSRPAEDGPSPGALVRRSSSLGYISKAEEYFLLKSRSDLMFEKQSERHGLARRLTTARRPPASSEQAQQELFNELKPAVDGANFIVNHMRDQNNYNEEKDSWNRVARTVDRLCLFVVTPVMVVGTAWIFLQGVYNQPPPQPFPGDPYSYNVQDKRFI
T1 sequence (Q04844 21-493): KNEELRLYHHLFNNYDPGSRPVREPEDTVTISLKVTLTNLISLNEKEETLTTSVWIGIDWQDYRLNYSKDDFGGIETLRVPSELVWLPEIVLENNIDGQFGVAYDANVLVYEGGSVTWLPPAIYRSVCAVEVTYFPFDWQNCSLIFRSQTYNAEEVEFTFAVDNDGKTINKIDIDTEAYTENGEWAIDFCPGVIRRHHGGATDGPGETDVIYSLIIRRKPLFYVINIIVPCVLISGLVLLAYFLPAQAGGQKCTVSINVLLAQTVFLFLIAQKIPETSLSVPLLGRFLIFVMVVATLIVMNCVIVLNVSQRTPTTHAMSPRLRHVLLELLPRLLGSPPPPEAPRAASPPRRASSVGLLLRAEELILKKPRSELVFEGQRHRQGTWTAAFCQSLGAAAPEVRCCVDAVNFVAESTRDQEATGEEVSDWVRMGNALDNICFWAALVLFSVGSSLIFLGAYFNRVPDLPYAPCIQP
T1 sequence (P11230 24-501 partner): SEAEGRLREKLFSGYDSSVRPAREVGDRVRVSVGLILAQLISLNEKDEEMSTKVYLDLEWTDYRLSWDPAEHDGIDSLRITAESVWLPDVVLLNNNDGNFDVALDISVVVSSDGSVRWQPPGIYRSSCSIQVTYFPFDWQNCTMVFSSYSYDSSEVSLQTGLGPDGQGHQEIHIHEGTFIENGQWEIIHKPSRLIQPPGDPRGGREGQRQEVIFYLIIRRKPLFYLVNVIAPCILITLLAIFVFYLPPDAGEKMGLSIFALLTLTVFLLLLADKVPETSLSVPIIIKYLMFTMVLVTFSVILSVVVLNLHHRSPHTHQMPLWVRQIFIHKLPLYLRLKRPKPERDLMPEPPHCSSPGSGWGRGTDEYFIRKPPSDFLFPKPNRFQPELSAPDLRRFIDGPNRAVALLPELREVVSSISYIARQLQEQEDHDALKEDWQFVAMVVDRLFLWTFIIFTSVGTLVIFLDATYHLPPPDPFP

As for `C[N+](C)(C)CCOC(=O)CCC(=O)OCC[N+](C)(C)C` [Succinylcholine chloride, 2,2′-[(1,4-dioxo-1,4-butanediyl)bis(oxy)]bis[N,N,Ntrimethylethanaminium] dichloride], the “Onset of flaccid paralysis” value in data set [1] is reported as “less than one”. Also, the Solubility in alcohol result (alcohol) is on record as “slightly soluble”. Moreover, the Solubility in ether entry (ether) is given as “practically insoluble”. The Solubility in water entry (water) is on record as “freely soluble”.
